Data taken from patent US20250353873A1, “COMPOUNDS AND METHODS FOR MODULATING APOE EXPRESSION” (Ionis Pharmaceuticals, Inc., priority 2024, published 2025).
Marks after values point to notes of the source that are not given here. Strand notation (5' to 3'): a small letter for the sugar, then the base; units joined by * are phosphorothioate-linked, units joined directly phosphodiester-linked; [ ] holds rarer units or linkages, { } end groups; capitals alone tell only the bases. [ms] = mesyl phosphoramidate linkage; e = 2'-O-(2-methoxyethyl) (MOE); k = constrained ethyl (cEt); [5mC] = 5-methylcytosine; d = 2'-deoxy (DNA)

Assays:
human APOE RNA [1] = experiment: Dose-dependent inhibition of human APOE RNA in HepG2 cells, electroporation, 50,000 cells per well, RT-PCR normalized to GAPDH (Example 4, Tables 8-10); assay type: cell-based; details: HepG2 cells, electroporation, Table 8
Summary of the method: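 HepG2 cells, 50,000 per well, electroporated with modified oligonucleotide at various concentrations. APOE RNA quantified by RT-PCR with human primer probe set RTS3073, normalized to GAPDH. Values are percent APOE RNA relative to untreated control cells.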

human APOE RNA [2] = experiment: Activity in APOE C57BL/6NTac-Apoeem7250 knock-in mice, single ICV bolus, 4 weeks (Example 10); assay type: in vivo; details: single ICV bolus 300 μg, 4 weeks post treatment, normalized to mouse Ppia
Summary of the method: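 Knock-in mice (2–4 per group) received one 300 μg ICV bolus of oligonucleotide or PBS. After four weeks, human APOE RNA in cortex and spinal cord measured by RT-qPCR (primer probe set RTS3073), normalized to mouse Ppia, expressed as % of PBS controls.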

human APOE RNA [3] = experiment: Activity in APOE C57BL/6NTac-Apoeem7250 knock-in mice, single ICV bolus, 8 weeks (Example 11); assay type: in vivo; details: single ICV bolus 300 μg, 8 weeks post treatment, normalized to mouse Ppia
Summary of the method: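 Human APOE knock-in C57BL/6NTac mice given one ICV bolus of 300 μg oligonucleotide; PBS-dosed group as control. At 8 weeks, cortex and spinal cord RNA measured by qRT-PCR (human probe RTS3073), normalized to mouse Ppia, expressed as % of PBS control.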

human APOE RNA [4] = experiment: Activity in APOE C57BL/6NTac-Apoeem7250 knock-in mice, single ICV bolus, 16 weeks (Example 12); assay type: in vivo; details: single ICV bolus 300 μg, 16 weeks post treatment, normalized to mouse Ppia
Summary of the method: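 Knock-in mice (3-4 per group) received one ICV bolus of 300 μg oligonucleotide, PBS as control. After 16 weeks, human APOE RNA in cortex and spinal cord measured by RT-qPCR, normalized to mouse Ppia, and reported as % of PBS control.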

human APOE RNA [5] = experiment: Activity in APOE C57BL/6NTac-Apoeem7250 knock-in mice, single ICV bolus, 20 weeks (Example 13); assay type: in vivo; details: single ICV bolus 300 μg, 20 weeks post treatment, normalized to mouse Ppia
Summary of the method: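 Knock-in mice (n=4) given a single ICV bolus of 300 μg oligonucleotide, PBS as control. After 20 weeks, human APOE RNA in cortex and spinal cord measured by RT-qPCR, normalized to mouse Ppia, expressed as % of PBS-treated animals.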

human APOE RNA [6] = experiment: Potency (dose response, ED50) in APOE C57BL/6NTac-Apoeem7250 knock-in mice, 4 weeks (Example 14); assay type: in vivo
Procedure: Modified oligonucleotides described above were tested in the APOE C57BL/6NTac-Apoeem7250 knock-in mouse model described above.
APOE C57BL/6NTac-Apoeem7250 knock-in mice were divided into groups of 3-4 mice each. A group of 3-4 mice received a single ICV bolus with PBS as a negative control.
Four weeks post treatment, mice were sacrificed, and RNA was extracted from cortical brain tissue and spinal cord for quantitative real-time RT-PCR analysis of RNA expression of […] using human primer probe set RTS3073 (described herein above). APOE RNA levels were normalized to mouse Ppia. Mouse Ppia was amplified using primer probe set m_cyclo24 (described herein above). Results are presented as percent human APOE RNA relative to the amount of APOE RNA in PBS treated animals, (% control). N.C. indicates values that were not calculated. Each experiment is identified in separate tables below.
The half maximal effective dose (ED50) of each modified oligonucleotide was calculated using GraphPad Prism 10 software (GraphPad Software, San Diego, CA).

human APOE RNA [7] = experiment: Activity in APOE 1549 knock-in mice, single ICV bolus, 2 weeks (Example 7); assay type: in vivo; details: single ICV bolus of 300 μg, two weeks post treatment, Table 16
Procedure: Modified oligonucleotides described above were tested in APOE knock-in mice.
APOE knock-in mice (model 41549) were obtained from Taconic Biosciences. APOE knock-in mice were divided into groups of 2 mice each. Each mouse received a single intracerebroventricular (ICV) bolus of 300 μg of modified oligonucleotide. A group of 4 mice received a single ICV bolus with PBS as a negative control.
Two weeks post treatment, mice were sacrificed and RNA was extracted from cortical brain tissue and spinal cord for quantitative real-time RT-PCR analysis of RNA expression of APOE using primer probe set RTS3073 (described herein above). APOE RNA levels were normalized to mouse Ppia. Mouse Ppia was amplified using primer probe set m_cyclo24 (forward sequence TCGCCGCTTGCTGCA, designated herein as SEQ ID NO: 16; reverse sequence ATCGGCCGTGATGTCGA, designated herein as SEQ ID NO: 17; probe sequence […], designated herein as SEQ ID NO: 18). Results are presented as percent human APOE RNA relative to the amount of human APOE RNA in PBS treated animals, (% control). Each experiment is identified in separate tables below.

human APOE RNA [8] = experiment: Duration of action study in APOE C57BL/6NTac-Apoeem7250 knock-in mice (Example 18); assay type: in vivo; details: 300 μg ICV
Procedure: Modified oligonucleotides described above were tested in the APOE C57BL/6NTac-Apoeem7250 knock-in model (described above).
Each mouse received a single intracerebroventricular (ICV) bolus of 300 μg of modified oligonucleotide. A group of 4-6 mice received a single ICV bolus with PBS as a negative control.
Mice were sacrificed at various timepoints as indicated in the table below and RNA was extracted from cortical brain tissue and spinal cord for quantitative real-time RT-PCR analysis of RNA expression of APOE using primer probe set RTS3073 (described herein above). APOE RNA levels were normalized to mouse Ppia. Mouse Ppia was amplified using primer probe set m_cyclo24 (described herein above). Results are presented as percent human APOE RNA relative to the amount of human APOE RNA in PBS treated animals, (% control). Each experiment is identified in separate tables below.

1778154: modified oligonucleotide complementary to human APOE RNA (e[5mC]*eT*eTeGeGeT*dG[ms]dA[ms]dA*dT*d[5mC]*dT*dT*dT*dA*dT*kTkAeA*eA; antisense) [compound 1778154]
APOE RNA (% UTC) 5 nM (human APOE RNA [1]; 24-hour treatment, 5 nM): 101 % UTC
APOE RNA (% UTC) 13 nM (human APOE RNA [1]; 24-hour treatment, 13 nM): 97 % UTC
APOE RNA (% UTC) 33 nM (human APOE RNA [1]; 24-hour treatment, 33 nM): 91 % UTC
APOE RNA (% UTC) 82 nM (human APOE RNA [1]; 24-hour treatment, 82 nM): 98 % UTC
APOE RNA (% UTC) 205 nM (human APOE RNA [1]; 24-hour treatment, 205 nM): 76 % UTC
APOE RNA (% UTC) 512 nM (human APOE RNA [1]; 24-hour treatment, 512 nM): 58 % UTC
APOE RNA (% UTC) 1,280 nM (human APOE RNA [1]; 24-hour treatment, 1,280 nM): 47 % UTC
APOE RNA (% UTC) 3,200 nM (human APOE RNA [1]; 24-hour treatment, 3,200 nM): 22 % UTC
APOE RNA (% UTC) 8,000 nM (human APOE RNA [1]; 24-hour treatment, 8,000 nM): 35 % UTC
APOE RNA (% UTC) 20,000 nM (human APOE RNA [1]; 24-hour treatment, 20,000 nM): 8 % UTC
IC50 (human APOE RNA [1]; reduction of human APOE RNA, 24-hour treatment): 1080 nM
APOE RNA (% control) Cortex (human APOE RNA [2]; cortex): 30 % control
APOE RNA (% control) Spinal Cord (human APOE RNA [2]; spinal cord): 44 % control
APOE RNA (% control) Cortex (human APOE RNA [3]): 29 % control
APOE RNA (% control) Spinal Cord (human APOE RNA [3]): 32 % control
APOE RNA (% control) Cortex (human APOE RNA [4]; cortex): 50 % control
APOE RNA (% control) Spinal Cord (human APOE RNA [4]; spinal cord): 29 % control
APOE RNA (% control) Cortex (human APOE RNA [5]; cortex): 82 % control
APOE RNA (% control) Spinal Cord (human APOE RNA [5]; spinal cord): 46 % control
APOE RNA (% control) Cortex (human APOE RNA [6]; cortex, ICV dose 10 μg): 89 % control
APOE RNA (% control) Cortex (human APOE RNA [6]; cortex, ICV dose 30 μg): 89 % control
APOE RNA (% control) Cortex (human APOE RNA [6]; cortex, ICV dose 100 μg): 70 % control
APOE RNA (% control) Cortex (human APOE RNA [6]; cortex, ICV dose 300 μg): 56 % control
APOE RNA (% control) Cortex (human APOE RNA [6]; cortex, ICV dose 700 μg): 27 % control
ED 50 (μg) Cortex (human APOE RNA [6]; cortex, single ICV bolus, GraphPad Prism 10): 279.4 µg
APOE RNA (% control) Spinal Cord (human APOE RNA [6]; spinal cord, ICV dose 10 μg): 105 % control
APOE RNA (% control) Spinal Cord (human APOE RNA [6]; spinal cord, ICV dose 30 μg): 137 % control
APOE RNA (% control) Spinal Cord (human APOE RNA [6]; spinal cord, ICV dose 100 μg): 38 % control
APOE RNA (% control) Spinal Cord (human APOE RNA [6]; spinal cord, ICV dose 300 μg): 43 % control
APOE RNA (% control) Spinal Cord (human APOE RNA [6]; spinal cord, ICV dose 700 μg): 47 % control
ED 50 (μg) Spinal Cord (human APOE RNA [6]; spinal cord, single ICV bolus, GraphPad Prism 10): 243.1 µg

1601959: 6-10-4 MOE gapmer CCGTGTCGCTGCCCCTGGCT, linkages sooooossssssssssoss (antisense e[5mC]*e[5mC]eGeTeGeTd[5mC]*dG*d[5mC]*dT*dG*d[5mC]*d[5mC]*d[5mC]*d[5mC]*dT*eGeG*e[5mC]*eT) [compound 1601959]
APOE RNA (% control) Cortex (human APOE RNA [7]): 107 % control
APOE RNA (% control) Spinal Cord (human APOE RNA [7]): 85 % control

1809637 (kA*e[5mC]eTeT*eG*kG*dT*dG[ms]dA[ms]dA[ms]dT*d[5mC]*dT*dT*dT*dA[ms]kT*kT*kA*kA; antisense) [Compound 1809637]
APOE RNA (% control) Cortex (human APOE RNA [3]): 20 % control
APOE RNA (% control) Spinal Cord (human APOE RNA [3]): 9 % control
APOE RNA (% control) Cortex (human APOE RNA [8]; 56 days post-dose): 26‡ % control
APOE RNA (% control) Cortex (human APOE RNA [8]; 112 days post-dose): 42 % control
APOE RNA (% control) Cortex (human APOE RNA [8]; 224 days post-dose): 58‡ % control
APOE RNA (% control) Spinal Cord (human APOE RNA [8]; 56 days post-dose): 19 % control
APOE RNA (% control) Spinal Cord (human APOE RNA [8]; 112 days post-dose): 17 % control
APOE RNA (% control) Spinal Cord (human APOE RNA [8]; 224 days post-dose): 36‡ % control

1601942: 6-10-4 MOE gapmer CCGTGTTCCATTTATGAGCT, linkages sooooossssssssssoss (antisense e[5mC]*e[5mC]eGeTeGeTdT*d[5mC]*d[5mC]*dA*dT*dT*dT*dA*dT*dG*eAeG*e[5mC]*eT) [compound 1601942]
APOE RNA (% control) Cortex (human APOE RNA [7]): 84 % control
APOE RNA (% control) Spinal Cord (human APOE RNA [7]): 91 % control

1810064: mixed MOE/cEt gapmer CTTGGTGAATCTTTATTAAAC, sugar eeeeekddddddddddeeeee, linkages ssoooszzzssssszsooss (e[5mC]*eT*eTeGeGkT*dG[ms]dA[ms]dA[ms]dT*d[5mC]*dT*dT*dT*dA[ms]dT*eTeAeA*eA*e[5mC]) [compound 1810064]
APOE RNA (% control) Cortex (human APOE RNA [3]): 23 % control
APOE RNA (% control) Spinal Cord (human APOE RNA [3]): 15 % control
APOE RNA (% control) Cortex (human APOE RNA [8]; 28 days post-dose): 40 % control
APOE RNA (% control) Cortex (human APOE RNA [8]; 112 days post-dose): 62 % control
APOE RNA (% control) Cortex (human APOE RNA [8]; 140 days post-dose): 63 % control
APOE RNA (% control) Spinal Cord (human APOE RNA [8]; 28 days post-dose): 22 % control
APOE RNA (% control) Spinal Cord (human APOE RNA [8]; 112 days post-dose): 31 % control
APOE RNA (% control) Spinal Cord (human APOE RNA [8]; 140 days post-dose): 48 % control

1809636 (kA*e[5mC]eTeT*eG*kG*dT*dG[ms]dA[ms]dA[ms]dT*d[5mC]*dT*dT*dT*dA[ms]kT*kT*eA*kA; antisense) [Compound 1809636]
APOE RNA (% control) Cortex (human APOE RNA [3]): 16 % control
APOE RNA (% control) Spinal Cord (human APOE RNA [3]): 11 % control
APOE RNA (% control) Cortex (human APOE RNA [8]; 56 days post-dose): 32 % control
APOE RNA (% control) Cortex (human APOE RNA [8]; 112 days post-dose): 33 % control
APOE RNA (% control) Cortex (human APOE RNA [8]; 224 days post-dose): 65‡ % control
APOE RNA (% control) Spinal Cord (human APOE RNA [8]; 56 days post-dose): 14 % control
APOE RNA (% control) Spinal Cord (human APOE RNA [8]; 112 days post-dose): 13 % control
APOE RNA (% control) Spinal Cord (human APOE RNA [8]; 224 days post-dose): 41‡ % control
